# Entries after “also recorded” stand apart in the source; their conditions may differ.
# Key:
# [1] = tested on: dopamine uptake (synaptosomes from rat brain); assay: blockade of dopamine uptake by synaptosomes from rat brain, in vitro, radioactive labelled compounds; format: biochemical; settings: dopamine 0.2 μM
# Excerpt: (§1) This blockade is shown both in vitro with radioactive labelled compounds to determine the amount of monoamine uptake by synaptosomes from rat brain, and in vivo by a variety of methods. Among the physiologically active monoamines whose uptake is blocked by the compounds of this invention are included particularly serotonin (5HT) and norepinephrine(3,4-dihydroxyphenylethanolamine). […] Tables 1 and 2 which follow set forth the results of some of the in vitro determinations of the blockade of monoamine uptake by the compounds of this invention. In the tables, column 1 gives the R substituent on the 3-phenylpropylamine and columns 2-4, the concentration in micrograms per ml. that blocks the uptake by 50 percent of the monoamines--norepinephrine, serotonin, and dopamine. At the head of each column is given the concentration of the particular monoamine used in the experiment.
# [2] = tested on: NE uptake and 5HT uptake; assay: NE/5HT uptake inhibition selectivity; format: biochemical, rat; settings: for NE/5HT IC50 uptake ratio: ratio NE/5HT
# Excerpt: as §1
# [3] = tested on: serotonin uptake (synaptosomes from rat brain); assay: blockade of serotonin (5HT) uptake by synaptosomes from rat brain, in vitro, radioactive labelled compounds; format: biochemical; settings: serotonin 0.1 μM
# Excerpt: as §1
# [4] = tested on: norepinephrine uptake (synaptosomes from rat brain); assay: blockade of norepinephrine uptake by synaptosomes from rat brain, in vitro, radioactive labelled compounds; format: biochemical; settings: norepinephrine 0.48 μM
# Excerpt: as §1
# [5] = humans; cited from earlier work
SMILES,Concentration that blocks 50% of dopamine uptake [1] [µg/mL],NE/5HT IC50 uptake ratio [2],Concentration that blocks 50% of serotonin uptake [3],Concentration that blocks 50% of norepinephrine uptake [4],antidepressant effect [5],"uptake inhibition selectivity in words ([2]; 5HT vs NE, listed as IV)"
"Cc1ccc(OC(CCN(C)C)c2ccccc2)cc1 (stereo not drawn) [p-tolyloxy, N,N-dimethyl 3-(p-tolyloxy)-3-phenylpropylamine]",> 100,5.83,.4 µg/mL,.015 µg/mL,–,–
"CNCCC(Oc1ccc(C(F)(F)F)cc1)c1ccccc1 (stereo not drawn) [fluoxetine, 3-phenyl-3-(p-trifluoromethyl)phenoxypropyl methylamine]",–,–,–,–,highly potent antidepressant in humans,–
"CN(C)CCC(Oc1ccc(Cl)cc1)c1ccccc1 (stereo not drawn) [p-chlorophenoxy, N,N-dimethyl 3-phenyl-3-(p-chlorophenoxy)-propylamine]",1.3,9.88,.03 µg/mL,.3 µg/mL,–,–
"CN(C)CCC(Oc1ccc(C(F)(F)F)cc1)c1ccccc1 (stereo not drawn) [p-trifluoromethylphenyloxy, N,N-dimethyl-3-(p-trifluoromethylphenoxy)-3-phenylpropylamine]",> 100,7.19,.16 µg/mL,70 µg/mL,–,–
"Cc1ccccc1OC(CCN(C)C)c1ccccc1 (stereo not drawn) [o-tolyloxy, 3-o-tolyloxy-3-phenylpropyl dimethylamine]",0.8,.5,2 µg/mL,.35 µg/mL,–,selective NE uptake inhibitors; also recorded: blocks NE preferentially
